# Experimental data: patent publication US7884120B2, “2,4,5-trisubstituted imidazoles and their use as anti-microbial agents” (Lorus Therapeutics Inc., priority 2002, dated 2011)
# Where two headings read alike, the source gives them in different places.
# Experiments:
# MRSA-1B387 = assay: In vivo inhibition of MRSA, acute infection in immunosuppressed CB17-SCID mice; parameters: species or system Staphylococcus aureus; conditions: 5×10^6 MRSA-1B387 in 5% mucin, 50 mg/kg I.P. immediately and 3 hours after inoculation
# Protocol: Triaryl-imidazole compounds were tested in vivo for antibacterial activity against MRSA in a model of acute infection using immunosuppressed mice. Suspensions of 400 μL containing 5×10^6 MRSA-1B387 bacteria in 5% mucin were injected into groups of 5-10 female, 8-14 weeks CB17-SCID mice. Under these conditions bacterial infection produced 80-100% lethality in less than 48 hours. Each group of inoculated mice was treated with 50 mg/kg of the respective compound intraperitoneally (I.P.) immediately and 3 hours after bacterial inoculation.
# [1] = tested on: Enterococcus faecium (ATCC-51559); assay: MIC by microdilution against Enterococcus faecium; format: cell-based; conditions: unit not given in Table 4 (Table 3, same method: μg/ml)
# Protocol: (§1) A standard microdilution method (NCCLS, 2000; Document M7-A5) was used to determine the minimum inhibitory concentrations (MICs) against S. aureus, methicillin-resistant strains (MRSA); 1A-218, 1A-318, 1B-374, 1B-315, 1B-185, 1B387 (Simor et al. 1999 Can Commun Dis Rep; 25:105-108) and methicillin-sensitive strains (MSSA); ATCC-6538 and ATCC-29213. The MICs of some compounds were also determined against other Gram-positive bacteria: Enterococcus faecium (ATCC 51559), Enterococcus faecalis (ATCC-51299, ATCC-29212) and Staphylococcus epidermidis (ATCC-35983).
# (§2) Mueller-Hinton broth (MHB) is recommended as the medium of choice for susceptibility testing of commonly isolated, rapidly growing aerobic organisms such as the Gram-positive bacteria included in this study. A “cation-adjusted Mueller-Hinton broth” (Ca-MHB) was prepared by first preparing standard MHB from a dehydrated base as recommended by the manufacturer.
# (§3) Single colonies from fresh agar plates of the different bacterial cultures were sub-cultured overnight in 3 ml of Tryptic soy broth (TSB) at 37° C. with shaking at 250 RPM. After 18-20 hours of incubation, the absorbance at λ=600 nm (OD600) were determined for each culture and adjusted to a final OD600=0.1 (4.2×10^7 cfu/ml). Bacterial suspensions were then diluted 1:200 in sterile Ca-MHB for the in vitro susceptibility test, with each well of the microtitre plate containing approximately 2×10^5 cfu/ml.
# (§4) Stock solutions of the different test compounds were prepared at concentrations of 1,280 μg/ml, 640 μg/ml, or 320 μg/ml in 50% DMSO (dimethyl sulfoxide). Serial two-fold dilutions were then prepared in 50% DMSO (the working concentrations were 1:10 of the stock concentrations in 100 μl culture suspensions). The filled microtitre plates were sealed in plastic bags and incubated at 35° C. for 24 hr in an ambient air incubator with shaking at 250 RPM. MIC values were determined as the lowest concentration where complete inhibition of the visible bacterial growth was observed by the unaided eye and confirmed by the measurement of the optical density (OD600).
# [2] = tested on: Enterococcus faecalis (ATCC-51299); assay: MIC by microdilution against Enterococcus faecalis ATCC-51299; format: cell-based; conditions: unit not given in Table 4 (Table 3, same method: μg/ml)
# Protocol: as §1, §2, §3, §4
# [3] = tested on: Enterococcus faecalis (ATCC-29212); assay: MIC by microdilution against Enterococcus faecalis ATCC-29212; format: cell-based; conditions: unit not given in Table 4 (Table 3, same method: μg/ml)
# Protocol: as §1, §2, §3, §4
# [4] = tested on: Staphylococcus epidermidis (ATCC-35983); assay: MIC by microdilution against Staphylococcus epidermidis; format: cell-based; conditions: unit not given in Table 4 (Table 3, same method: μg/ml)
# Protocol: as §1, §2, §3, §4
# [5] = tested on: Methicillin-Resistant Staphylococcus aureus (MRSA), CMRSA-1B; assay: MIC by sequential macrodilution (tube) broth method against MRSA; format: cell-based; parameters: key: (+): Positive visual bacterial growth; (−): Negative visual bacterial growth; conditions: 37° C. overnight
# Protocol: (Nat. Committee for Clinical Laboratory Standards. Document M7-A5 2000, 20; 1-25). Bacterial suspensions containing 5×10^5 colony-forming units (CFU) were incubated with serial two-fold dilutions of each drug at 37° C. overnight, and growth was monitored visually. The range of MIC values among the triaryl-imidazole derivatives was 12.5-50 μg/ml.
# [6] = tested on: multi-drug resistant Staphylococcus aureus (CMRSA-1B); assay: Bactericidal effect against MRSA (CFU plating on TSA); format: cell-based; conditions: overnight with compound, plated on TSA, CFU count (FIG. 1)
# Protocol: Serial dilutions of liquid cultures were incubated with the compounds at 37° C. overnight and then plated on Tryptic Soy Agar (TSA) plates. After incubation for 17 hours at 37° C., the number of live bacteria was calculated from the number of colonies grown per milliliter of culture and expressed as colony-forming units (CFU).
# [7] = tested on: S. aureus, MRSA 1A-218, 1A-318, 1B-374, 1B-315, 1B-185, 1B387 and MSSA ATCC-6538, ATCC-29213; assay: MIC by standard microdilution method against S. aureus (MRSA and MSSA strains); format: cell-based; conditions: Staphylococcus aureus
# Protocol: as §1, §2, §3, §4
# MRSA 1B-387 = assay: In vivo anti-bacterial activity, ICR mice inoculated I.P. with MRSA, oral treatment; conditions: Staphylococcus aureus
# Protocol: For in vivo studies, groups of 5-10 female ICR mice (6-7 weeks) were inoculated intraperitonially with 3-8×10^7 CFU MRSA 1B-387 per mouse in 400 μl of 5% mucin. The test compounds at concentrations of 50 or 100 mg/kg were administered orally immediately after the bacterial inoculation and again 3 hours later. The selected dosages were administered twice daily throughout the experiment. The efficacy of the treatment was evaluated by comparison of mortality between the experimental and control groups (Table 5).
# [8] = tested on: Candida albicans (ATCC 24433); assay: In vitro anti-fungal activity, microdilution against Candida albicans; format: cell-based; conditions: for MIC: ATCC24433, C. albicans ATCC 24433
# Protocol: A microdilution method was used to determine the anti-fungal activity of different test compounds against Candida albicans (ATCC 24433) at 25 μg/ml. RPMI-1640 broth is recommended as the medium of choice for susceptibility testing of C. albicans (NCCLS, 2002; Document M27-A2) and was used in this study. The broth was buffered to pH 7.0 and then sterilized using a 250 ml vacuum driven disposable 0.45 um filtration system.
# C. albicans was sub-cultured from a −80° C. stock onto Sabouraud dextrose agar and incubated for 24-48 hrs at 37° C. The fungi inoculum was prepared by picking five colonies of ˜1 mm in diameter from 24-48 hr old cultures. The colonies were then suspended in 5 ml of sterile normal saline (8.5 g/L NaCl; 0.85% saline) diluted 1:50 and further diluted 1:20 with medium to obtain two-fold inoculum (1-5×10^3 cfu/ml). […] The microtitre plates were then sealed in plastic bags and incubated at 35° C. for 24-48 hrs in an ambient air incubator with shaking at 250 RPM.
# Inhibition of visible growth of C. albicans in the microtitre plate wells was assessed by the unaided eye and confirmed by OD600 reading. […] The MIC values of compounds with significant activity are also included.
# [9] = against all 8 strains of S. aureus tested except where indicated, microdilution, Ca-MHB, 35° C., 24 hr, read-out: MIC
# [10] = ATCC24433, C. albicans ATCC 24433, compound 25 μg/ml, 24 h, read-out: Inhibition (%) after 24 h
# [11] = ATCC24433, C. albicans ATCC 24433, compound 25 μg/ml, 48 h, read-out: Inhibition (%) after 48 h
SMILES,"MIC [7, 9]",responders at 100 mg/kg (MRSA 1B-387),responders at 100 mg/kg (MRSA 1B-387; read-out: Survival %),"inhibition at 25 µg/mL [8, 10]","inhibition at 25 µg/mL [8, 11]",other results
"CN[C@H](CC(C)C)C(=O)N[C@H]1C(=O)N[C@@H](CC(N)=O)C(=O)N[C@H]2C(=O)N[C@H]3C(=O)N[C@H](C(=O)N[C@H](C(=O)O)c4cc(O)cc(O)c4-c4cc3ccc4O)[C@H](O)c3ccc(c(Cl)c3)Oc3cc2cc(c3O[C@@H]2O[C@H](CO)[C@@H](O)[C@H](O)[C@H]2O[C@H]2C[C@](C)(N)[C@H](O)[C@H](C)O2)Oc2ccc(cc2Cl)[C@H]1O [Vancomycin, reference compound]",,,,,,Survival (%) (MRSA-1B387): 100%; MIC [1]: >128; MIC [2]: 32; MIC [3]: 4; MIC [4]: 2
O=C(O)c1ccc(-c2nc(-c3ccc(Sc4ccccc4)cc3)c(-c3ccccc3)[nH]2)cc1 [Compound 1],,,,,,visual bacterial growth ([5]; Conc. 3.12 μg/ml): +; visual bacterial growth ([5]; Conc. 6.25 μg/ml): +; visual bacterial growth ([5]; Conc. 12.50 μg/ml): −; visual bacterial growth ([5]; Conc. 25.00 μg/ml): −; visual bacterial growth ([5]; Conc. 50.00 μg/ml): −; visual bacterial growth ([5]; Conc. 100.00 μg/ml): −; bactericidal or bacteriostatic effect at the corresponding MIC [6]: bactericidal effect; Survival (%) (MRSA-1B387): 40%
Fc1ccc(-c2[nH]c(-c3c[nH]c4ccc(Br)cc34)nc2-c2ccccc2)cc1 [Compound 36],2 µg/mL,80%,80%,86%,97%,MIC [8]: 16 µg/mL
O=C(O)c1ccc(-c2nc(-c3ccc(Br)cc3)c(-c3ccccc3Br)[nH]2)cc1 [Compound 4],,,,,,visual bacterial growth ([5]; Conc. 3.12 μg/ml): +; visual bacterial growth ([5]; Conc. 6.25 μg/ml): +; visual bacterial growth ([5]; Conc. 12.50 μg/ml): +; visual bacterial growth ([5]; Conc. 25.00 μg/ml): +; visual bacterial growth ([5]; Conc. 50.00 μg/ml): −; visual bacterial growth ([5]; Conc. 100.00 μg/ml): −; bactericidal or bacteriostatic effect at the corresponding MIC [6]: bacteriostatic effect; Survival (%) (MRSA-1B387; 50 mg/kg): 50%
Brc1ccc2[nH]cc(-c3nc(-c4ccccc4)c(-c4ccccc4)[nH]3)c2c1 [Compound 6],4 µg/mL,40%,40%,0%,0%,
Clc1ccc(-c2[nH]c(-c3c[nH]c4ccc(Br)cc34)nc2-c2ccccc2)cc1 [Compound 32],8 µg/mL,40%,40%,93%,100%,MIC [8]: 8 µg/mL
Cc1[nH]c2ccccc2c1-c1nc(-c2ccc(Br)cc2)c(-c2ccc(Br)cc2)[nH]1 [Compound 13],2 to 4 µg/mL,20%,20%,0%,0%,MIC [1]: 32; MIC [2]: 32
Cc1[nH]c2ccccc2c1-c1nc(-c2ccc(N(C)C)cc2)c(-c2ccc(N(C)C)cc2)[nH]1 [Compound 11],8 µg/mL,0%,0%,27%,28%,
O=C(O)c1ccc(-c2nc(-c3ccc(Br)cc3)c(-c3ccccc3Br)[nH]2)cc1 [Compound 3],,,,,,visual bacterial growth ([5]; Conc. 3.12 μg/ml): +; visual bacterial growth ([5]; Conc. 6.25 μg/ml): +; visual bacterial growth ([5]; Conc. 12.50 μg/ml): +; visual bacterial growth ([5]; Conc. 25.00 μg/ml): −; visual bacterial growth ([5]; Conc. 50.00 μg/ml): −; visual bacterial growth ([5]; Conc. 100.00 μg/ml): −; bactericidal or bacteriostatic effect at the corresponding MIC [6]: bacteriostatic effect; Survival (%) (MRSA-1B387; 50 mg/kg): 15%
COC(=O)c1ccc2c(-c3nc(-c4ccccc4)c(-c4ccccc4)[nH]3)c[nH]c2c1 [Compound 83],> 128 µg/mL,20%,20%,0%,0%,
O=[N+]([O-])c1ccc(-c2[nH]c(-c3c[nH]c4ccc(Br)cc34)nc2-c2ccccc2)cc1 [Compound 34],> 128 µg/mL,100%,100%,0%,0%,
Brc1ccc(-c2[nH]c(-c3c[nH]c4ccc(Br)cc34)nc2-c2ccccc2)cc1 [Compound 43],4 µg/mL,80%,80%,87%,59%,MIC [8]: 8 µg/mL
Fc1ccc(-c2nc(-c3c[nH]c4ccc(Br)cc34)[nH]c2-c2ccc(F)cc2)cc1 [Compound 8],2 µg/mL,20%,20%,100%,100%,MIC [8]: 8 µg/mL
Cc1[nH]c2ccccc2c1-c1nc2c3ccccc3c3ccccc3c2[nH]1 [Compound 44],,60%,60%,,,"MIC ([7]; 24 h): 8 µg/mL; inhibition at 25 µg/mL ([8]; ATCC24433, 24 h, read-out: Inhibition (%) after 24 h): 0%; inhibition at 25 µg/mL ([8]; ATCC24433, 48 h, read-out: Inhibition (%) after 48 h): 0%"
Cc1[nH]c2ccccc2c1-c1nc(-c2ccccc2)c(-c2ccc(Br)cc2)[nH]1 [Compound 42],4 µg/mL,0%,0%,77%,43%,
Cc1[nH]c2ccccc2c1-c1nc(-c2ccccc2)c(-c2ccc(F)cc2)[nH]1 [Compound 35],8 µg/mL,4%,40%,100%,73%,
